Source: patent US10144929B2, “Polypeptide inhibitors of Smad3 polypeptide activities” (Mayo Foundation for Medical Education and Research, priority 2016, dated 2018)

What was measured:
pSmad3 = target: T1, pSmad3 (Mus musculus, UniProt Q8BUN5); test: Nuclear import of pSmad3 (nuclear fractions Western, immunofluorescence) in AKR-2B cells; format: cell-based; settings: 90 minutes transduction, TGFβ 5 ng/mL 1 hour
T1 construct: endogenous in cells; host or cells: AKR-2B cells
Experimental: FIGS. 1A-C. SH3 domain of sorting nexin 9 (SNX9) specifically binds pSmad3 and prevents nuclear import. (A) Cartoon depicting domains in full length (FL) SNX9 and constructs used for GST pull down assays. Lysates from AKR-2B cells untreated (−) or stimulated (+) for 45 minutes with 5 ng/mL TGFβ were incubated with GST beads or the indicated fusion polypeptides immobilized on GST beads. Bound polypeptides were eluted and assessed by Western analysis for pSmad3 or pSmad2. Cell lysate reflects signal obtained from 10 μg total protein. (B) AKR-2B cells were transduced for 90 minutes with the indicated concentrations of the TAT-SNX9(SH3) fusion polypeptides. […] Quantitation of nuclear pSmads was performed with Image J software and represents the mean+/−sd of two experiments (Right). […] Quantitation of nuclear Smad3 from 30 cells in each of two experiments (Right).
FIGS. 3A-E. Inhibition of Smad3 signaling by a defined region of the SH3 domain in SNX9. […] (B) Nuclear fractions were prepared and assessed as in FIG. 1B following transduction with the indicated TAT-SNX9(SH3) fusion polypeptide (Left). Quantitation (mean+/−sd) of nuclear pSmad2 or pSmad3 from 2 experiments (Right). (C) Immunofluorescence of nuclear Smad3 was determined as in FIG. 1C from 30 cells in each of two experiments in the absence (−) or presence (+) of 5 ng/mL TGFβ and the indicated TAT-SNX9(SH3) fusion polypeptide (1.5 μM). […]

CTS SSCT fibroblasts = test: TGF-β responsive gene expression in CTS subsynovial connective tissue fibroblasts (qRT-PCR); format: cell-based, human; settings: 1.5 μM, 90 minutes pretreatment, 2 ng/mL TGF-β 24 hours
Description: FIG. 8 is a graph plotting the expression of CTGF. TGFβ stimulated CTGF gene expression was examined in subsynovial connective tissue as in FIGS. 3D and 4B following addition of TAT-SH3-2 (SNX9 peptide) or TAT-SH3-2M (Control peptide). The results were normalized to control treatments without TGFβ.
FIG. 9 is a graph plotting the expression of PAI-1 by cells exposed to the indicated treatments. TGFβ stimulated PAI-1 gene expression was examined in subsynovial connective tissue as in FIG. 8.
Fibroblasts were harvested from CTS patient SSCT tissue (n=3) who had carpal tunnel release surgery as described elsewhere (Gingery et al., J. Orthop. Res., 32(11):1444-50 (2014)). The CTS SSCT fibroblasts were cultured in Minimum Essential Media (MEM) supplemented with 10% fetal bovine serum (FBS) and 1% antibiotic/antimycotic. […]
Total RNA was isolated gene expression was evaluated using quantitative real-time polymerase chain reaction (qRT-PCR) as described elsewhere (Gingery et al., J. Orthop. Res., 32(11):1444-50 (2014)). TGF-β responsive genes (connective tissue growth factor (CTGF) and plasminogen activator inhibitor-1 (PAI-1)) were evaluated with TATA binding protein as the housekeeping gene.
Statistical analysis of qRT-PCR gene expression was normalized to control, and significance was determined by unpaired Student's t-test for each gene. […]

T1 sequence (Q8BUN5 whole entry): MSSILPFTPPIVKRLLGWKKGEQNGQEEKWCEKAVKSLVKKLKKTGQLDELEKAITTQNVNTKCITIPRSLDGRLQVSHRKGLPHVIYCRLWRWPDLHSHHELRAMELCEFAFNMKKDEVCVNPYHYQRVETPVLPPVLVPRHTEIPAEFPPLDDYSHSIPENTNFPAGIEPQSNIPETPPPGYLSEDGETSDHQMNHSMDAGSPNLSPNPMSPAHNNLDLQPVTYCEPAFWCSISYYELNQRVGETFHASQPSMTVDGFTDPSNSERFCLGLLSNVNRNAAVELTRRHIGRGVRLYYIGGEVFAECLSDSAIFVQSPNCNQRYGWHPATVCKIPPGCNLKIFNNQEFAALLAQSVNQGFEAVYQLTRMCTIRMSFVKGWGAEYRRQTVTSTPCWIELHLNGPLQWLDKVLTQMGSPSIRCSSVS

TAT-SH3-2: TAT-SNX9(SH3) fusion polypeptide having SNX9 amino acids 21-51 (31 mer) (TVNEGEIITITNPDVGGGWLEGRNIKGERGL; left off: small tags and cut ends)
nuclear import of pSmad3 (pSmad3): specifically prevented pSmad3 nuclear import
expression of PAI-1 (CTS SSCT fibroblasts): No significant differences
CTGF gene expression (CTS SSCT fibroblasts; compared with vehicle, P<0.05): down regulated
